Assay results taken from patent US11021518B2, “Theta defensin analogs” (The University of Southern California, priority 2019, dated 2021).
Bridge positions count the residues as written; N and C are the ends. Peptide text beside a SMILES is read from it.

What was measured:
[1] = tested on: TNF-α (TNF) release; test: suppression of TNF-α (TNF) release; assay type: cell-based
[2] = tested on: carbapenem resistant strain of Klebsiella pneumoniae (KPC+-Kp BAA-1705 (ATCC)); test: murine carbapenem resistant Klebsiella pneumoniae sepsis model, survival; assay type: in vivo, BALB/c mice; settings: for survival (FIG. 3 right panel): 0.5 mg/kg i.p. 1 hour post infection; for Kp sepsis % survival at 5 mg/kg: BALB/c mice, i.p. infection, peptide 5 mg/kg i.p. 1 hour post infection; for survival (FIG. 3 left panel): 5 mg/kg i.p. 1 hour post infection, sham controls 25% survival; for therapeutic effect on survival (FIG. 4): 1 hour post infection
Protocol: BALB/c mice were infected interperitoneally with 3-5×10^8 CFU of a carbapenem resistant strain of Klebsiella pneumoniae (KPC+-Kp BAA-1705 (ATCC)) and treated with peptide one hour post infection. […] P-values were determined by Fisher's exact test. The therapeutic peptides were provided intraperitoneally 1 hour after induction of sepsis.
BALB/c mice were infected i.p. with KPC+-Kp BAA-1705 (ATCC) and treated with a single dose of MTD12813, at the levels indicated, 1 hour post infection. The significance (P-values determined by Fisher's exact test) of the therapeutic effect for each dose is shown. […] It should be appreciated that 0.5 mg/kg is the lowest dose tested, and that Inventors believe that MTD12813 is effective at still lower doses, for example down to 0.25 mg/kg, […], or 10 μg/kg.

[3] = target: TACE (Homo sapiens, UniProt P78536); test: inhibition of TACE; assay type: biochemical
Sequence of TACE (P78536 215-824): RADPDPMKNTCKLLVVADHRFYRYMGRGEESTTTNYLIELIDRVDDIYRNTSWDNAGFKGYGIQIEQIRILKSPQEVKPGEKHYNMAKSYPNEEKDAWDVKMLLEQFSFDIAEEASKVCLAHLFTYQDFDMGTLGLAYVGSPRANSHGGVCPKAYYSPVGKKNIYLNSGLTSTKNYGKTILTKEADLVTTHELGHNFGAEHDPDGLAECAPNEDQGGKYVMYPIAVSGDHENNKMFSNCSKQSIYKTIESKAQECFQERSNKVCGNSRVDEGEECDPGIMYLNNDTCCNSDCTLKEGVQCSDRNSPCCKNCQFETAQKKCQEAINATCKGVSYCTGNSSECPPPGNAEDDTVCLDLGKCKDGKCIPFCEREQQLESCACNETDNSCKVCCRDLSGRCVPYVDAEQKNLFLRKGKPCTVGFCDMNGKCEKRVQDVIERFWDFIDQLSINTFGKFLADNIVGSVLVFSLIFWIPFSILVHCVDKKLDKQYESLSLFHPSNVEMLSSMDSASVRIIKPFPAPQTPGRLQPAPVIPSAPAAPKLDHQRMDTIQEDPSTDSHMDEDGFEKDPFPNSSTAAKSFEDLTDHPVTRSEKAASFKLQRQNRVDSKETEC

Row | Compound | TNF % suppression at 5 mg/kg [1] [%] | survival (FIG. 3 right panel) [2] | Kp sepsis % survival at 5 mg/kg [2] | IC50 [3] [nM] | survival (FIG. 3 left panel) [2] | therapeutic effect on survival (FIG. 4) ([2]; single dose 0.5 mg/kg, lowest dose tested) | therapeutic effect on survival (FIG. 4) ([2]; single dose 1.25 mg/kg)
1 | CC[C@H](C)[C@@H]1NC(=O)[C@@H]2CSSC[C@H](NC(=O)[C@H](CC(C)C)NC(=O)[C@@H]3CSSC[C@H](NC1=O)C(=O)N[C@@H](CCCNC(=N)N)C(=O)N[C@@H](CCCNC(=N)N)C(=O)N[C@@H](CCCNC(=N)N)C(=O)N[C@@H](Cc1ccccc1)C(=O)N3)C(=O)N[C@@H](CCCNC(=N)N)C(=O)N[C@@H](CCCNC(=N)N)C(=O)NCC(=O)N[C@@H](C(C)C)C(=O)N2 [MTD1280] (cyclo(CICRRRFCLCRRGV); disulfide 1-10, 3-8) | 98.7 | essentially identical to that of the sham control | 80-100% | 1280 | – | – | –
2 | CC[C@H](C)[C@@H]1NC(=O)[C@@H]2CSSC[C@H](NC(=O)[C@H]([C@@H](C)CC)NC(=O)[C@@H]3CSSC[C@H](NC1=O)C(=O)N[C@@H](CCCNC(=N)N)C(=O)N[C@@H](CCCNC(=N)N)C(=O)NCC(=O)N[C@@H](C(C)C)C(=O)N3)C(=O)N[C@@H](CCCNC(=N)N)C(=O)N[C@@H](CCCNC(=N)N)C(=O)NCC(=O)N[C@@H](C(C)C)C(=O)N2 [MTD1281] (cyclo(CICRRGVCICRRGV); disulfide 1-10, 3-8) | 83.0 | – | 40% | 347 | – | – | –
3 | CC(C)C[C@@H]1NC(=O)[C@@H]2CSSC[C@H](NC(=O)[C@H](CC(C)C)NC(=O)[C@@H]3CSSC[C@H](NC1=O)C(=O)N[C@@H](CCCNC(=N)N)C(=O)N[C@@H](CCCNC(=N)N)C(=O)NCC(=O)N[C@@H](C(C)C)C(=O)N3)C(=O)N[C@@H](CCCNC(=N)N)C(=O)N[C@@H](CCCNC(=N)N)C(=O)NCC(=O)N[C@@H](C(C)C)C(=O)N2 [MTD1284] (cyclo(CLCRRGVCLCRRGV); disulfide 1-10, 3-8) | 78.8 | – | 53.3% | 732 | – | – | –
4 | CC[C@H](C)[C@@H]1NC(=O)[C@@H]2CSSC[C@H](NC(=O)[C@H](CC(C)C)NC(=O)[C@@H]3CSSC[C@H](NC1=O)C(=O)N[C@@H](CCCNC(=N)N)C(=O)N[C@@H](CCCNC(=N)N)C(=O)N[C@@H](CCCNC(=N)N)C(=O)N[C@@H](Cc1ccccc1)C(=O)N3)C(=O)N[C@@H](CCCNC(=N)N)C(=O)N[C@@H](CCCNC(=N)N)C(=O)NCC(=O)N[C@@H](C)C(=O)N2 [MTD1286] (cyclo(ACICRRRFCLCRRG); disulfide 2-11, 4-9) | – | – | – | 305 | – | – | –
5 | CC(C)[C@@H]1NC(=O)CNC(=O)[C@H](CCCNC(=N)N)NC(=O)[C@H](CCCNC(=N)N)NC(=O)[C@@H]2CSSC[C@H](NC1=O)C(=O)N[C@@H](C)C(=O)N[C@H]1CSSC[C@H](NC(=O)[C@H](Cc3ccccc3)NC(=O)[C@H](CCCNC(=N)N)NC(=O)[C@H](CCCNC(=N)N)NC(=O)[C@H](CCCNC(=N)N)NC1=O)C(=O)N[C@@H](C)C(=O)N2 [MTD1289] (cyclo(ACRRGVCACRRRFC); disulfide 2-7, 9-14) | – | – | – | 1670 | – | – | –
6 | CC(C)C[C@@H]1NC(=O)[C@@H]2CSSC[C@H](NC(=O)[C@H](CO)NC(=O)[C@@H]3CSSC[C@H](NC1=O)C(=O)N[C@@H](CCCNC(=N)N)C(=O)N[C@@H](CCCNC(=N)N)C(=O)NCC(=O)N[C@@H](C(C)C)C(=O)N3)C(=O)N[C@@H](CCCNC(=N)N)C(=O)N[C@@H](CCCNC(=N)N)C(=O)N[C@@H](CCCNC(=N)N)C(=O)N[C@@H](Cc1ccccc1)C(=O)N2 [MTD12810] (cyclo(CLCRRGVCSCRRRF); disulfide 1-10, 3-8) | 2.0 | – | 0% | 1540 | – | – | –
7 | CC[C@H](C)[C@@H]1NC(=O)[C@@H]2CSSC[C@H](NC(=O)[C@H](CO)NC(=O)[C@@H]3CSSC[C@H](NC1=O)C(=O)N[C@@H](CCCNC(=N)N)C(=O)N[C@@H](CCCNC(=N)N)C(=O)NCC(=O)N[C@@H](C(C)C)C(=O)N3)C(=O)N[C@@H](CCCNC(=N)N)C(=O)N[C@@H](CCCNC(=N)N)C(=O)N[C@@H](CCCNC(=N)N)C(=O)N[C@@H](Cc1ccccc1)C(=O)N2 [MTD12811] (cyclo(CICRRGVCSCRRRF); disulfide 1-10, 3-8) | 37.5 | – | 30% | 1890 | – | – | –
8 | CC[C@H](C)[C@@H]1NC(=O)[C@@H]2CSSC[C@H](NC(=O)[C@H](CO)NC(=O)[C@@H]3CSSC[C@H](NC1=O)C(=O)N[C@@H](CCCNC(=N)N)C(=O)N[C@@H](CCCNC(=N)N)C(=O)N[C@@H](CCCNC(=N)N)C(=O)N[C@@H](Cc1ccccc1)C(=O)N3)C(=O)N[C@@H](CCCNC(=N)N)C(=O)N[C@@H](CCCNC(=N)N)C(=O)NCC(=O)N[C@@H](C(C)C)C(=O)N2 [MTD12812] (cyclo(CICRRRFCSCRRGV); disulfide 1-10, 3-8) | 14.9 | – | 20% | 1100 | – | – | –
9 | CC[C@H](C)[C@@H]1NC(=O)[C@@H]2CSSC[C@H](NC(=O)[C@H]([C@@H](C)CC)NC(=O)[C@@H]3CSSC[C@H](NC1=O)C(=O)NCC(=O)N[C@@H](CCCNC(=N)N)C(=O)NCC(=O)N[C@@H](C(C)C)C(=O)N3)C(=O)N[C@@H](CCCNC(=N)N)C(=O)N[C@@H](CCCNC(=N)N)C(=O)N[C@@H](CCCNC(=N)N)C(=O)N[C@@H](C(C)C)C(=O)N2 [MTD12813] (cyclo(CGRGVCICRRRVCI); disulfide 1-6, 8-13) | 95.6 | ~90% | 100% | 546 | complete protection | highly effective | as effective as 5 mg/kg
10 | CC(C)[C@@H]1NC(=O)CNC(=O)[C@H](CCCNC(=N)N)NC(=O)[C@H](CCCNC(=N)N)NC(=O)[C@@H]2CSSC[C@H](NC1=O)C(=O)N[C@@H](C)C(=O)N[C@H]1CSSC[C@H](NC(=O)[C@H](Cc3ccccc3)NC(=O)[C@H](CCCNC(=N)N)NC(=O)[C@H](CCCNC(=N)N)NC(=O)[C@H](C)NC1=O)C(=O)N[C@@H](C)C(=O)N2 [MTD12815] (cyclo(ACARRFCACRRGVC); disulfide 2-7, 9-14) | – | – | – | 1180 | – | – | –
11 | RTD-1: naturally occurring rhesus monkey θ-defensin, cyclic octadecapeptide with 3 disulfide bonds (cyclo(GFCRCLCRRGVCRCICTR); disulfide (positions not given here); not fully specified (bridges); also: three disulfide bonds, pairing not given here; listed as Macaca mulatta) [reference compound] | – | – | – | – | 70% | – | –
